Laboratory results published in ChEMBL document CHEMBL3792323, “Piperidine derivatives as nonprostanoid IP receptor agonists” (Bioorg Med Chem Lett, 2016).

Tests used:
[1] = Cmax in fasted dog at 2.5 mg/kg, po; type: ADME, organism-based, Canis lupus familiaris; parameters: dose 2.5 mg/kg, route oral; settings: in vivo
[2] = molecular target: Prostacyclin receptor (Homo sapiens, UniProt P43119); experiment: Binding affinity to human IP receptor by competitive binding assay
[3] = molecular target: Prostaglandin E2 receptor EP4 subtype (Homo sapiens, UniProt P35408); experiment: Binding affinity to human EP4 receptor by competitive binding assay
Chain of Prostaglandin E2 receptor EP4 subtype (P35408 whole entry): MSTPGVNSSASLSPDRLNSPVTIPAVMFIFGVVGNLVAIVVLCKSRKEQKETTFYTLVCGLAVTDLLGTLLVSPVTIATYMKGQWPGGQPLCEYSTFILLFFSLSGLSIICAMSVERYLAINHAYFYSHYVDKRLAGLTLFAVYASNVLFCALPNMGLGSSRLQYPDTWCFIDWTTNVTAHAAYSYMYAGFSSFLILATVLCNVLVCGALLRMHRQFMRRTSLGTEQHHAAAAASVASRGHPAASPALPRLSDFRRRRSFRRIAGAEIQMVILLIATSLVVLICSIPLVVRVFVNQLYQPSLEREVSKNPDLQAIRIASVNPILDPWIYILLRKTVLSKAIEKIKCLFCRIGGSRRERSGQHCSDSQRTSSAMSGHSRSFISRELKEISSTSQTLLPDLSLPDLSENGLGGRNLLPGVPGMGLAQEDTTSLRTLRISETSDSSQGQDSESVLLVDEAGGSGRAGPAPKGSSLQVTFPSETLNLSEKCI

[4] = molecular target: T1, Thromboxane A2 receptor (Homo sapiens, UniProt P21731); experiment: Binding affinity to human TP receptor by competitive binding assay
T1 sequence (P21731 whole entry): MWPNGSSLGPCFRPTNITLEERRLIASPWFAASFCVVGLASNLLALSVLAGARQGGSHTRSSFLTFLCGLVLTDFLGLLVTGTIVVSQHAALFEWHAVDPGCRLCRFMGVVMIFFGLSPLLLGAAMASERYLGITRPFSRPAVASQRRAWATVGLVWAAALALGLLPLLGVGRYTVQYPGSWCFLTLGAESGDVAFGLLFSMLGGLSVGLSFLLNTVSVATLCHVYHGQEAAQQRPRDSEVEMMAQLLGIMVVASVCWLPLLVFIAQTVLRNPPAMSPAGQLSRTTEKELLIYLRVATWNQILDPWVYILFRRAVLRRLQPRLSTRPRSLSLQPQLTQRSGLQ

[5] = molecular target: Prostaglandin F2-alpha receptor (Homo sapiens, UniProt P43088); experiment: Binding affinity to human FP receptor by competitive binding assay
Chain of Prostaglandin F2-alpha receptor (P43088 whole entry): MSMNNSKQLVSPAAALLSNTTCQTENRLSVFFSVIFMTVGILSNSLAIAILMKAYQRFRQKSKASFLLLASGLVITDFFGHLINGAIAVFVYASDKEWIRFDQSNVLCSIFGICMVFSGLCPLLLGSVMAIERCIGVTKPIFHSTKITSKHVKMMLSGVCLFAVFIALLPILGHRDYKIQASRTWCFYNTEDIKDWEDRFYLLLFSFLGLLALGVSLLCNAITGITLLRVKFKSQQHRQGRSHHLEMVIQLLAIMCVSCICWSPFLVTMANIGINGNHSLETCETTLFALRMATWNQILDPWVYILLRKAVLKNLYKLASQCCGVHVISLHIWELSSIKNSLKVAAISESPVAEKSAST

[6] = molecular target: T2, Prostaglandin E2 receptor EP1 subtype (Homo sapiens, UniProt P34995); experiment: Binding affinity to human EP1 receptor by competitive binding assay
T2 sequence (P34995 whole entry): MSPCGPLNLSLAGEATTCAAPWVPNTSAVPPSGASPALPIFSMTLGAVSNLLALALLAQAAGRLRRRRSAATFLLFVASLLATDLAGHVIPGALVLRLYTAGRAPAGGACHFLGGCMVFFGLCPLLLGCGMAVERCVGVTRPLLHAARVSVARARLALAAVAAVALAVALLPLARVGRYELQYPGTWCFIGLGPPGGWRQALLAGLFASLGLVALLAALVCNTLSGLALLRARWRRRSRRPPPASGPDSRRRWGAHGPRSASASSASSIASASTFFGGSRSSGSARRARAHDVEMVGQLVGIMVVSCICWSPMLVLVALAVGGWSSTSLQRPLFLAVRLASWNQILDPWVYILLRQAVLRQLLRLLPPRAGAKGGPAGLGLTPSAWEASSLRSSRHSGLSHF

[7] = molecular target: T3, Prostaglandin E2 receptor EP3 subtype (Homo sapiens, UniProt P43115); experiment: Binding affinity to human EP3 receptor by competitive binding assay
T3 sequence (P43115 whole entry): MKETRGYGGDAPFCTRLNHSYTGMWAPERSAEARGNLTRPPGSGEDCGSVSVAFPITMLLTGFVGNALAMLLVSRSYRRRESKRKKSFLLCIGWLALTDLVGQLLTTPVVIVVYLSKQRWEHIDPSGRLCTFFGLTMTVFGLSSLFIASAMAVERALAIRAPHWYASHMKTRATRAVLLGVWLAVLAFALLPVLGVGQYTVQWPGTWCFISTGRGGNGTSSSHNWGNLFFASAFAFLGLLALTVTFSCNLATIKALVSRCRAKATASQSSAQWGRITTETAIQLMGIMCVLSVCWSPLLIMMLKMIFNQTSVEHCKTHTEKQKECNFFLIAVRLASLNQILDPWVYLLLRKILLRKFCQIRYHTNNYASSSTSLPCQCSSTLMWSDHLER

[8] = Oral bioavailability in fasted dog at 2.5 mg/kg; type: ADME, organism-based, Canis lupus familiaris; settings: in vivo
[9] = molecular target: Prostaglandin E2 receptor EP2 subtype (Homo sapiens, UniProt P43116); experiment: Binding affinity to human EP2 receptor by competitive binding assay
Chain of Prostaglandin E2 receptor EP2 subtype (P43116 whole entry): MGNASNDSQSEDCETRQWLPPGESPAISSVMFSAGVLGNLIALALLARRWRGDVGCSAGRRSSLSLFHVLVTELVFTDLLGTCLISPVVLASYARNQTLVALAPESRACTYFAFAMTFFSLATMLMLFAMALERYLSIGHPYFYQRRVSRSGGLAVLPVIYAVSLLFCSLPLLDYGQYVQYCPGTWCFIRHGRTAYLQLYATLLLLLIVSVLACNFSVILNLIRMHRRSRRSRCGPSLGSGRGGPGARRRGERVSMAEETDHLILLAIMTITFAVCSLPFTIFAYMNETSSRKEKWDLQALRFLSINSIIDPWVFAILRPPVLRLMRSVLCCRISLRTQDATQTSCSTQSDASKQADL

Chain of Prostacyclin receptor (P43119 whole entry): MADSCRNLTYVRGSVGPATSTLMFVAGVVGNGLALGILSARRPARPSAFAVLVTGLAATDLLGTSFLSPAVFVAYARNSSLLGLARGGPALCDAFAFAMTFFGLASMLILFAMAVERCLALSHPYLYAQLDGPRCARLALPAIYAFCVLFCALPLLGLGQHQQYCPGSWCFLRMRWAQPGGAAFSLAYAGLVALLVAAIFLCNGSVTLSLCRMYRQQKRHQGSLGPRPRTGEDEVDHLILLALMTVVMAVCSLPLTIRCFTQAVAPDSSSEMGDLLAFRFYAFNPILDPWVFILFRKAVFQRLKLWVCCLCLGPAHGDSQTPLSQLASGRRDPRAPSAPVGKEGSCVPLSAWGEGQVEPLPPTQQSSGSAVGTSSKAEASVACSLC

Row | Cmax [1] | Ki [2] | Ki [3] | Ki [4] | Ki [5] | Ki [6] | Ki [7] | bioavailability [8] | Ki [9] | Compound
1 | 1610 ng/mL | 0.99 µM | > 50 µM | > 50 µM | > 50 µM | > 50 µM | > 50 µM | 77% | > 50 µM | Cc1ccc(N(CCN2CCC(OCC(=O)O)CC2)C(=O)c2ccccc2)cc1
2 | 138 ng/mL |  |  |  |  |  |  | 13% |  | O=C(O)COc1cccc2c1OCCN2CCN(C(=O)c1ccccn1)c1ccc(Cl)cc1
